Results reported in PubChem BioAssay AID1996.
≈ marks a conversion by molar mass, not a printed value.

Conditions: buffer; pH 7.4; 200.0 µM

SMILES | solubility kinetic
CC(=O)c1sc(NC(=O)Cc2c(F)cccc2Cl)nc1C | 8.2 µg/mL (≈ 25.1 µM)
CC(C)CNC(=O)N[C@@H](CC(C)C)C(=O)O | > 34.5 µg/mL
CCOC(=O)c1c(C=O)c2ccccc2n1Cc1ccccc1 | < 0.7 µg/mL
CC1(C)CC(=O)C=C(NCCc2ccccc2)C1 | 35.1 µg/mL (≈ 144 µM)
CCOC(=O)c1c(C)nc(C)c2c(=O)oc3ccccc3c12 | < 0.6 µg/mL
CCOc1ccccc1N1CCN(C(=O)NC2CCCCC2)CC1 | > 49.7 µg/mL
CC(=O)C(Sc1nccc(-c2cccs2)n1)C(C)=O | 40.5 µg/mL (≈ 139 µM)
CCOC(=O)c1[nH]c2cc3c(cc2c1NC(=O)CN1CCCC1)OCO3 | 18 µg/mL (≈ 50.1 µM)
Cc1ccc2nc(CCc3nc4ccc(C)cc4[nH]3)[nH]c2c1.Cl | 8.9 µg/mL
COc1ccc(Cl)cc1N(CC(=O)N1CCCC1)S(C)(=O)=O | 51.5 µg/mL (≈ 148 µM)
COc1ccc(OCCSc2ncc(CO)n2C)cc1 | > 44.2 µg/mL
Cc1ccccc1-n1c(=O)n(CCc2ccccc2)c(=O)c2[nH]cnc21 | 10.8 µg/mL (≈ 31.2 µM)
Cc1cccc(NC(=O)CN(C)C(=O)C2CCCC2)c1C | > 43.3 µg/mL
Cc1c(CN2CCN(CC(C)(C)C)C(CCO)C2)[nH]c2ccccc12 (stereo not drawn) | 45.1 µg/mL (≈ 131 µM)
NC(=O)c1c(NC(=O)c2ccccc2F)sc2c1CCCC2 | 3 µg/mL (≈ 9.42 µM)
O=C(CN1C(=O)COc2ccc(Cl)cc21)NCC1CCCO1 (stereo not drawn) | > 48.7 µg/mL
CNc1cc(=O)n(C)c(=O)n1-c1ccccc1 | > 34.7 µg/mL
CC(=O)c1sc(NCc2ccccc2)nc1C | 31.8 µg/mL (≈ 129 µM)
Cc1cc(-c2nnc(CCC(=O)NCc3ccc(F)c(F)c3)o2)no1 | > 52.2 µg/mL
Cc1ccccc1NC(=O)C(NC1CCCCC1)C(C)C (stereo not drawn) | 6.7 µg/mL (≈ 23.2 µM)

SMILES | solubility kinetic
O=C1CCCc2ccccc2N1Cc1ccccc1 | 37.5 µg/mL (≈ 149 µM)
NC(=O)c1ccc[n+]([C@H]2O[C@@H](COP(=O)([O-])OP(=O)(O)OC[C@H]3O[C@@H](n4cnc5c(N)ncnc54)[C@H](O)[C@@H]3O)[C@H](O)[C@@H]2O)c1 | > 99.5 µg/mL
CN(C(=O)Cn1nc(C(=O)O)c2ccccc2c1=O)C1CCCCC1 | > 51.5 µg/mL
CC(C)NC(=O)COc1nncc2ccccc12 | > 36.8 µg/mL
O=S(=O)(c1ccccc1)N1CCN(c2cccc(Cl)c2)CC1 | 3.8 µg/mL (≈ 11.3 µM)
COc1cc(/C(C)=N/N2CCOCC2)cc(OC)c1OC | > 44.2 µg/mL
COc1ccc(N2CCCC2=N)c(OC)c1.Cl | > 38.5 µg/mL
Cc1ccc(-c2csc(NC(=O)c3c(C)noc3C)n2)cc1C | 1.7 µg/mL (≈ 5.19 µM)
CCN(CC)C(=O)c1ccc(NC(=O)c2cccc(C(F)(F)F)c2)cc1 | 2.8 µg/mL (≈ 7.68 µM)
O=C1CN(C(=O)COC(=O)CCS(=O)(=O)c2ccccc2Cl)c2ccccc2N1 | > 65.5 µg/mL
O=C(COC(=O)c1cnccn1)NC(=O)c1ccccc1 | > 42.8 µg/mL
O=C(CN1CCCC1)NC(=O)NC1CCCC1 | > 35.9 µg/mL
O=C(NCC(=O)N1CCN(c2ncccn2)CC1)c1ccccc1OC(F)F | 52.2 µg/mL (≈ 133 µM)
Fc1ccccc1Oc1nc(-c2ccncc2)nc2ccccc12 | < 0.2 µg/mL
CC(NC(=S)NC(=O)c1cccs1)c1ccccc1 (stereo not drawn) | 8.2 µg/mL (≈ 28.2 µM)
O=C1CC(NC(=O)c2ccc(Cl)cc2)C(=O)N1 (stereo not drawn) | > 37.9 µg/mL
COc1ccccc1N1C(=O)S/C(=C\c2cccs2)C1=O | < 0.7 µg/mL
CCN(CC)S(=O)(=O)c1ccc(N2CCOCC2)c(NC(=O)c2cc(Cl)c3c(c2)OCO3)c1 | 5.2 µg/mL (≈ 10.5 µM)
N#CCc1cccnc1Sc1ccc(Cl)cc1 | > 39.1 µg/mL
O=c1cc(N2CCCC2)c2ccccc2o1 | > 32.3 µg/mL

The remaining lines, values ahead:

solubility kinetic | SMILES
> 42.3 µg/mL | Cc1nc([N+](=O)[O-])cn1CC(O)c1ccc(Cl)cc1 (stereo not drawn)
1.1 µg/mL (≈ 3.47 µM) | COc1ccc(-c2ccc(S(=O)(=O)N3CCCC3)cc2)cc1
19.3 µg/mL (≈ 81.3 µM) | Nc1ccc2oc(=O)c(-c3ccccc3)cc2c1
> 38.3 µg/mL | CC(=O)c1ccc(NC(=O)Nc2ccncc2)cc1
> 47 µg/mL | CCOc1ccccc1NC(=O)Nc1cccc(NC(C)=O)c1
44.3 µg/mL (≈ 135 µM) | O=C(O)C1C2CCC(O2)C1C(=O)Nc1ccc(OC(F)F)cc1 (stereo not drawn)
> 51.2 µg/mL | O=C(CN1C(=O)c2ccccc2C1=O)Nc1cc([N+](=O)[O-])ccc1O
> 43.9 µg/mL | COC(=O)c1ccccc1NC(=O)c1ccc[nH+]c1.[Cl-]
12.1 µg/mL (≈ 35.9 µM) | CN(C)S(=O)(=O)c1cccc(COc2cccnc2[N+](=O)[O-])c1
32.4 µg/mL (≈ 109 µM) | COc1ccc(C(=O)N2CCCc3ccccc32)cc1OC
10 µg/mL (≈ 26.5 µM) | CN1C(CC(=O)Nc2ccc(Cl)cc2Cl)c2ccccc2CC1(C)C (stereo not drawn)
1.1 µg/mL (≈ 3.7 µM) | Cc1ccc(NC(=O)O/N=C/c2ccc(N(C)C)cc2)cc1
46.6 µg/mL (≈ 132 µM) | COc1cccc(OCCNS(=O)(=O)c2cccc([N+](=O)[O-])c2)c1
> 58.7 µg/mL | O=C(NCCCN1CCCC1=O)c1cc(-c2ccc(F)cc2)nc2ccccc12
> 53.2 µg/mL | CC(=O)NCCc1nc2cc(NC(=O)c3ccc(F)cc3)ccc2n1C
< 0.4 µg/mL | COc1ccc(NC(=O)Nc2ccc(Br)c(C)c2)cc1
< 0.7 µg/mL | O=C(Nc1ccccc1)c1cccc2c(Br)cccc12
> 42 µg/mL | COc1cnc(NS(=O)(=O)c2ccc(N)cc2)nc1
< 0.4 µg/mL | C=CCOC(=O)c1sc(NC(=O)c2ccc(OC)cc2)nc1C
33.3 µg/mL (≈ 138 µM) | CN(C)c1ccc(CNCc2cccnc2)cc1
> 45.7 µg/mL | COc1ccc(C)cc1NC(=O)CSc1cccc[n+]1[O-]
30.9 µg/mL (≈ 74.7 µM) | O=C(/C=C/c1cccc([N+](=O)[O-])c1)OCC(=O)N1CCN(C(=O)c2ccco2)CC1

solubility kinetic | SMILES
34.1 µg/mL (≈ 131 µM) | CCNc1c([N+](=O)[O-])c(=O)n(CC)c2ccccc12
33.7 µg/mL (≈ 131 µM) | COc1cc(C=O)ccc1OC(=O)c1cccnc1
1.7 µg/mL (≈ 6.48 µM) | CNC(=O)c1[nH]cnc1C(=O)Nc1ccc(F)cc1
40.2 µg/mL (≈ 146 µM) | Cc1ccc(C(=O)NC2CC(C)(C)NC(C)(C)C2)cc1
0.9 µg/mL (≈ 3.12 µM) | COc1ccc(NC(=O)Nc2ccc([N+](=O)[O-])cc2)cn1
9.3 µg/mL (≈ 31.1 µM) | Cc1ccc(NC(=O)O/N=C/c2cccc([N+](=O)[O-])c2)cc1
> 47.6 µg/mL | Cc1ccc(C(=O)NCC(=O)OCC(=O)c2ccccc2)s1
1.2 µg/mL (≈ 3.45 µM) | O=C(Nc1ccc(Oc2cccc(C(F)(F)F)c2)nc1)c1ccco1
5 µg/mL (≈ 14.8 µM) | O=C(CN1CCN(c2ccc(O)cc2)CC1)N1CCc2ccccc21
1.2 µg/mL (≈ 3.98 µM) | O=C(NC(=S)Nc1cccc([N+](=O)[O-])c1)c1ccccc1
< 0.3 µg/mL | COC(=O)c1cccc(NC(=O)Nc2ccc(Cl)cc2)c1
> 46.6 µg/mL | Cc1cc(NS(C)(=O)=O)c(=O)n(Cc2cccc(F)c2)c1
> 64 µg/mL | CC(=O)Nc1ccc(NC(=O)C(C)Sc2nnc(-c3ccc4c(c3)OCO4)o2)cc1 (stereo not drawn)
36.3 µg/mL (≈ 142 µM) | Cn1c(COc2ccc(F)cc2)nc2ccccc21
9.7 µg/mL (≈ 38 µM) | O=C(Nc1ccccc1)OCCCc1ccccc1
25.3 µg/mL (≈ 85.7 µM) | Cc1ccc(-c2nc3ncccc3o2)cc1NC(=O)C(C)C
10.4 µg/mL (≈ 28.6 µM) | CC(C)(C)c1ccc(OCC(=O)Nc2ccncc2)c(Br)c1
0.4 µg/mL (≈ 1.17 µM) | CNC(=O)NC(=O)Cn1cnc2sc(-c3ccccc3)cc2c1=O
< 0.3 µg/mL | CC(C)S(=O)(=O)c1csc(NC(=O)Nc2cccc([N+](=O)[O-])c2)c1Cl
> 43.4 µg/mL | COc1ccc(CNC(=O)COc2ccc(F)cc2)cc1
49.7 µg/mL (≈ 149 µM) | COCCn1c(C)cc(C(=O)COc2cccnc2[N+](=O)[O-])c1C
